Results taken from paper PMC10816276 (International Journal of Molecular Sciences, 2024).

How the values were obtained:
[1] = tested on: ICR mice; assay: Acute oral toxicity, 14 days; assay type: in vivo; details: for Death rate / Death toll (♀/♂): 20 mice; for Toxic Symptoms (♀/♂) Perianal Uncleanliness / Toxic Symptoms (♀/♂) Prone State / Toxic Symptoms (♀/♂) Reduced Activities / Toxic Symptoms (♀/♂) Shortness of Breath: n = 20 mice
Protocol: I. Animals. […] Male and female mice were raised separately in sterile PC transparent cages in the room with a 12 h light-dark cycle. The animal procedures followed the guidelines of the National Institute of Health Guide for the Care and Use of Laboratory Animals and were approved by the Institutional Animal Care and Use Committee (IACUC) of Yunnan Institute of Materia Medica.
II. Acute oral_toxicity. […] In this experiment, a 5% sodium carboxymethyl cellulose solution (5% CMC-Na) was chosen as the Vehicle and the solvent for 6′-O-caffeoylarbutin. […] Each mouse in the Vehicle group received an administration of 40 mL∙kg-1 of 5% CMC-Na. The treatment groups were orally administrated 6′-O-caffeoylarbutin twice within a 24_h period, with an interval of approximately 3.5–4.0 h, by dissolving in 5% CMC-Na at three different concentrations. Following administration, all animals in each group were closely monitored for about 2–5 h to observe any physical changes, monitor body weight, and record the death rate. The surviving mice were observed and monitored for an additional 14 days, with their body weight recorded on the 1st, 3rd, 7th, and 14th days. Animals that died during the experimental period or those that survived until the conclusion of the toxicity test were subjected to necropsy, and their organs were histopathologically observed and analyzed. All studies were conducted in accordance with the requirements of Good Laboratory Practice.

[2] = target: T1, Mushroom tyrosinase (mTyr) (Agaricus bisporus, UniProt C7FF04); assay: Fluorescence quenching of mTyr; assay type: binding
T1 construct: purchased Sigma-Aldrich
T1 sequence (C7FF04 1-392): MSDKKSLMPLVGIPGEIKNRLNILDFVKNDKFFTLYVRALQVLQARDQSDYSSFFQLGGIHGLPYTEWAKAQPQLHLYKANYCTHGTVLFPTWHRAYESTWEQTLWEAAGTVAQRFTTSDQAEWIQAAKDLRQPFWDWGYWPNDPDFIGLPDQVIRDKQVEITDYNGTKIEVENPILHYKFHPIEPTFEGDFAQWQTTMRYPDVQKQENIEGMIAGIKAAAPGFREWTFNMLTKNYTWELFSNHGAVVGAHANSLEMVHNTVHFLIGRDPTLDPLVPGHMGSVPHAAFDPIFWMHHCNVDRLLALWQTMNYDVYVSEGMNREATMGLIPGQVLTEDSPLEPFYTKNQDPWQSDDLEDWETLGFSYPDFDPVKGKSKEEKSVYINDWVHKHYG
From the text: Fluorescence quenching can be classified into static quenching and dynamic quenching. Static quenching occurs when quenching agents bind to fluorescent substances, forming complexes that result in quenching. Dynamic quenching, on the other hand, primarily arises from thermal motion and molecular collisions. The plot of F0/F against the concentration of 6′-O-caffeoylarbutin yielded a straight line with a good linear relationship (R^2 = 0.9802). […] Typically, the threshold value for the maximum collisional quenching rate constant between small molecular quenchers and large biomolecules is 2.0 × 10^10 L·(mol·s)^−1. If the calculated quenching rate constant is below this threshold, it indicates a dynamic quenching mechanism. Conversely, if the quenching rate constant exceeds this threshold, the quenching process may involve static quenching.
In the static quenching process, the relationship between fluorescence intensity and quencher concentration can be described by Equation (1). lg[(F0 − F)/F] = lgKa + nlg[Q](1) where F0 and F represent relative fluorescence intensities of the solution without and with the quencher, respectively. Ka represents the apparent binding constant between the enzyme and the quencher, n represents the number of binding sites on each biomacromolecule for the quencher, and [Q] denotes the concentration of the quencher. In this study, a double-logarithmic linear regression analysis of lg[(F0 − F)/F] against lg[Q] was conducted to evaluate the interaction between 6′-O-caffeoylarbutin and mTyr. Figure S5C illustrates the resulting regression line, which provided a slope and intercept for the calculation of Ka and n. The obtained values were determined as (10.79 ± 0.82) × 10^4 L∙mol^−1 and 0.79 ± 0.06, respectively. These findings indicate the formation of a stable complex between 6′-O-caffeoylarbutin and mTyr, involving a single binding site.
The fluorescence quenching role of 6′-O-caffeoylarbutin on mTyr was investigated using a RF-6000 fluorescence spectrophotometer (Shimadzu, Kyoto, Japan) with a xenon flash lamp as a light source, according to the literature with minor alterations. The excitation wavelength was 280 nm, with a scanning wavelength ranging from 290 to 500 nm at 37 °C. The excitation and emission bandwidths were 2.5 nm and 5.0 nm, respectively. A 3 mL mixture containing 2.0 mL of 31.25 U·mL^−1 mTyr solution, 0.5 mL of 6′-O-caffeoylarbutin solution (with 3% dimethyl sulfoxide) at concentrations from 0 to 100 μM, and 0.5 mL of PBS was used to collect the fluorescence intensity curves. The PBS served as the corresponding blank to correct the fluorescence intensities. The fluorescence quenching mechanism between mTyr and 6′-O-caffeoylarbutin was described using the Stern-Volmer Equation (2). (2) F0/F=1+KSVQ=1+Kqτ0[Q] where KSV is the Stern-Volmer quenching constant, [Q] represents the concentration of 6′-O-caffeoylarbutin, Kq is bimolecular quenching rate constant, and τ0 denotes the average lifetime of the fluorescence molecules in the absence of 6′-O-caffeoylarbutin (value is 10^−8 s).

[3] = tested on: apple juice; assay: Browning inhibitory effect on apple juice; set-up: species or system Zhaotong Red Fuji apples; details: absorbance at 420 nm, compared to apple juice blank control
Protocol: To investigate the anti-browning effect of 6′-O-caffeoylarbutin, apple juice was used following a modified method based on the literature. Zhaotong Red Fuji apples were carefully chosen to ensure uniform shape, color, size, and maturity, free from any physical damage. After peeling, the apples were sliced into 10 g portions. These apple pieces were then immersed in solutions containing different concentrations of 6′-O-caffeoylarbutin for 10 min, followed by homogenization. The homogenized samples were subsequently subjected to centrifugation at 8000 rpm for 5 min at 4 °C, and the resulting supernatant (3 mL) was collected. Simultaneously, a blank control was prepared by extracting apple juice without the addition of any anti-browning agent. The absorbance of the samples at 420 nm was measured using a UV_vis spectrophotometer.

SMILES: O=C(C=Cc1ccc(O)c(O)c1)OCC1OC(Oc2ccc(O)cc2)C(O)C(O)C1O (stereo not shown) [6′-O-caffeoylarbutin]
- Death rate ([1]; CA-1, 28056 mg·kg-1 oral): 25%
- Death toll (♀/♂) ([1]; CA-1, 28056 mg·kg-1 oral): 3/2
- Toxic Symptoms (♀/♂) Perianal Uncleanliness ([1]; CA-1, 28,056 mg·kg^−1 oral): 0
- Toxic Symptoms (♀/♂) Prone State ([1]; CA-1, 28,056 mg·kg^−1 oral): 2 (0/2)
- Toxic Symptoms (♀/♂) Reduced Activities ([1]; CA-1, 28,056 mg·kg^−1 oral): 8 (2/6)
- Toxic Symptoms (♀/♂) Shortness of Breath ([1]; CA-1, 28,056 mg·kg^−1 oral): 4 (2/2)
- Body weight gain ([1]; CA-1, Female mice): 2.22 ± 0.62 g
- body weight, 1st day after the delivery ([1]; CA-1, Female mice): 22.26±0.97
- body weight, 3rd day after the delivery ([1]; CA-1, Female mice): 24.28±1.18
- body weight, 7th day after the delivery ([1]; CA-1, Female mice): 24.88±1.09
- body weight, 14th day after the delivery ([1]; CA-1, Female mice): 27.10±1.39
- Body weight gain ([1]; CA-1, Male mice): 2.65 ± 1.01 g
- body weight, 1st day after the delivery ([1]; CA-1, Male mice): 30.75±2.11
- body weight, 3rd day after the delivery ([1]; CA-1, Male mice): 33.62±2.35
- body weight, 7th day after the delivery ([1]; CA-1, Male mice): 35.25±2.53
- body weight, 14th day after the delivery ([1]; CA-1, Male mice): 37.90±3.13
- Death rate ([1]; CA-2, 23848 mg·kg-1 oral): 5%
- Death toll (♀/♂) ([1]; CA-2, 23848 mg·kg-1 oral): 0/1
- Toxic Symptoms (♀/♂) Perianal Uncleanliness ([1]; CA-2, 23,848 mg·kg^−1 oral): 0
- Toxic Symptoms (♀/♂) Prone State ([1]; CA-2, 23,848 mg·kg^−1 oral): 0
- Toxic Symptoms (♀/♂) Reduced Activities ([1]; CA-2, 23,848 mg·kg^−1 oral): 1 (0/1)
- Toxic Symptoms (♀/♂) Shortness of Breath ([1]; CA-2, 23,848 mg·kg^−1 oral): 0
- Body weight gain ([1]; CA-2, Female mice): 1.88 ± 1.17 g
- body weight, 1st day after the delivery ([1]; CA-2, Female mice): 21.58±1.21
- body weight, 7th day after the delivery ([1]; CA-2, Female mice): 23.59±0.50
- body weight, 14th day after the delivery ([1]; CA-2, Female mice): 25.47±1.36
- Body weight gain ([1]; CA-2, Male mice): 3.38 ± 1.23 g
- body weight, 1st day after the delivery ([1]; CA-2, Male mice): 30.91±0.87
- body weight, 3rd day after the delivery ([1]; CA-2, Male mice): 33.07±1.24
- body weight, 7th day after the delivery ([1]; CA-2, Male mice): 33.88±1.71
- body weight, 14th day after the delivery ([1]; CA-2, Male mice): 37.26±2.19
- Death toll (♀/♂) ([1]; CA-3, 20272 mg·kg-1 oral): 0/0
- Toxic Symptoms (♀/♂) Perianal Uncleanliness ([1]; CA-3, 20,272 mg·kg^−1 oral): 0
- Toxic Symptoms (♀/♂) Prone State ([1]; CA-3, 20,272 mg·kg^−1 oral): 0
- Toxic Symptoms (♀/♂) Reduced Activities ([1]; CA-3, 20,272 mg·kg^−1 oral): 0
- Toxic Symptoms (♀/♂) Shortness of Breath ([1]; CA-3, 20,272 mg·kg^−1 oral): 0
- Body weight gain ([1]; CA-3, Female mice): 2.41 ± 1.51 g
- body weight, 1st day after the delivery ([1]; CA-3, Female mice): 22.21±0.87
- body weight, 3rd day after the delivery ([1]; CA-3, Female mice): 23.36±0.66
- body weight, 14th day after the delivery ([1]; CA-3, Female mice): 26.62±1.54
- Body weight gain ([1]; CA-3, Male mice): 1.45 ± 3.11 g
- body weight, 1st day after the delivery ([1]; CA-3, Male mice): 30.89±1.57
- body weight, 3rd day after the delivery ([1]; CA-3, Male mice): 33.88±1.41
- body weight, 7th day after the delivery ([1]; CA-3, Male mice): 35.33±1.44
- body weight, 14th day after the delivery ([1]; CA-3, Male mice): 36.78±3.53
- deaths ([1]; mouse, in vivo): no deaths
- reduction of the peak of the fluorescence emission spectrum of mTyr ([2]; 25 μM): 37.18%
- decrease in the fluorescence emission spectrum of mTyr ([2]; 100 μM): 12.57%
- quenching rate constant Kq ([2]; Stern-Volmer, 37 °C): 4.11e+12 L·mol/s
- apparent binding constant Ka ([2]; double-logarithmic regression): 108000 L/mol
- number of binding sites n ([2]; double-logarithmic regression): 0.79 ± 0.06
- formation of browning compounds in apple juice [3]: significant reduction in the formation of browning compounds in a dose-dependent manner
